System: MDA-MB-231 cancer cells
Assay: Doxorubicin delivery into cancer cells (fluorescence microscopy)
Format: cell-based
Conditions: MDA-MB-231 cells, 10-minute incubation, same amount of doxorubicin (2 μg)
Description: The components of fusion liposomes, DOTAL (molecules of type A) and Doxorubicin (molecules of type B), were mixed at a ratio of 1:0.1 mol/mol from 1 mg/ml parent solutions in chloroform.
Following homogenization of the lipid molecules with the aromatic doxorubicin, the organic solvent was removed under vacuum. The dried mixture was placed in 20 mM HEPES solution having a pH of 7.4 and homogenized in an ultrasonic bath for 20 minutes. The final concentration of the fusion mixture was set to 2 mg/ml. After a dilution of 1/100 v/v in DMEM medium, 500 μl of the fusion mixture was added to approximately 100,000 adherent MDA-MB-231 cancer cells and incubated for 10 minutes at 37° C.
A further cell sample was incubated with the same amount of doxorubicin (2 μg) in culture medium without fusion mixture for control purposes. The conventional dosage is 1 mg/ml.
In addition, doxorubicin was introduced into neutral DOPC liposomes (without molecules of type A) (DOPC:Dox at a ratio of 1:0.1 mol/mol) and added to adherent cells in the same concentration as in the other sample (2 μg/ml). […] The results were then compared to each other.

COc1cccc2c1C(=O)c1c(O)c3c(c(O)c1C2=O)C[C@@](O)(C(=O)CO)C[C@@H]3O[C@H]1C[C@H](N)[C@H](O)[C@H](C)O1 [free doxorubicin, doxorubicin]
doxorubicin uptake (fluorescent signal in cells): low fluorescent signal

Reference: patent US20160060602A1, “FUSION MIXTURE” (FORSCHUNGSZENTRUM JÜLICH GMBH, priority 2013, published 2016)
